Each block holds one molecule with its values, some of them ahead of it.
Legend:
Escherichia coli = test: In vitro antibacterial activity against Escherichia coli GC6265; format: functional
Beta-lactamase = Beta-lactamase (Enterobacter cloacae, UniProt P05364); test: In vitro inhibitory activity against Beta-lactamase AmpC of class C enzyme
Serratia marcescens = test: In vitro antibacterial activity against Serratia marcescens GC4132 Beta-lactamase AmpC of class C enzyme; format: functional
[1] = target: Beta-lactamase TEM (Escherichia coli) (UniProt P62593)
Beta-lactamase TEM (Escherichia coli), sequence (P62593 whole entry): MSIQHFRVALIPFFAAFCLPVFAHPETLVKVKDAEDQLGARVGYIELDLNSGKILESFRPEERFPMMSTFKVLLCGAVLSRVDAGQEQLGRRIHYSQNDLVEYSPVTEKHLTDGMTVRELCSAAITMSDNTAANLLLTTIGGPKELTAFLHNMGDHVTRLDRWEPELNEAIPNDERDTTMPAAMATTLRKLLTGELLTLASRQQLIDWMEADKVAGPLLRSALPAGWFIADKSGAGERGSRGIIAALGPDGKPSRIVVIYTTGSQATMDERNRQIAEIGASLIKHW

[2] = target: Beta-lactamase (Enterobacter cloacae) (UniProt P05364); conditions: Serratia marcescens
Beta-lactamase (Enterobacter cloacae), sequence (P05364 21-381 limits assumed): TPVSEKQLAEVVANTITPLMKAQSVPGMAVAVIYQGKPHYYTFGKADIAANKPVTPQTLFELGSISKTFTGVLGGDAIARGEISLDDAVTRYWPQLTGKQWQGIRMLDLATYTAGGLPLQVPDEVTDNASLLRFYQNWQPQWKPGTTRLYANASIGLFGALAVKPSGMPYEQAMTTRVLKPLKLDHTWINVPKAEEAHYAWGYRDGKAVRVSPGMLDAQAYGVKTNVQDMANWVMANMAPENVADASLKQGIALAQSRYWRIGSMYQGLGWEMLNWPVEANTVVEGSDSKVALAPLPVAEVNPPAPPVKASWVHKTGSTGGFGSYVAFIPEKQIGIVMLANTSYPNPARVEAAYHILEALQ

[3] = target: Beta-lactamase (Enterobacter cloacae) (UniProt P05364); conditions: Pseudomonas aeruginosa
Description: In vitro antibacterial activity against Pseudomonas aeruginosa Beta-lactamase AmpC of class C enzyme

Beta-lactamase, sequence (P05364 whole entry): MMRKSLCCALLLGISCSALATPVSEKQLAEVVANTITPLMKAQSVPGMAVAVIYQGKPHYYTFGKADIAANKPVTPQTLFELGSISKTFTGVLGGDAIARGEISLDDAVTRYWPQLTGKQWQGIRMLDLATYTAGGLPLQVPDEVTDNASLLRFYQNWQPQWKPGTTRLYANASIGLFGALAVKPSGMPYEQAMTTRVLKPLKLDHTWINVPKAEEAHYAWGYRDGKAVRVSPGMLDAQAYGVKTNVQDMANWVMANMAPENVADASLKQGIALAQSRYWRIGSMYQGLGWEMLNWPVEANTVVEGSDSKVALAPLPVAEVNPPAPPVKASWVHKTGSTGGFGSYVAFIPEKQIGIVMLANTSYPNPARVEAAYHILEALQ

MIC (Escherichia coli): > 64 µg/mL
Structure (SMILES): CCN1CCN(C(=O)N[C@@H](C(=O)N[C@@H]2C(=O)N3[C@@H]2SC(C)(C)[C@@H]3C(=O)O)c2ccccc2)C(=O)C1=O [PIPERACILLIN]

MIC (Escherichia coli): 64 µg/mL
Structure (SMILES): CC1(C)[C@H](C(=O)O)N2C(=O)[C@]3(C[C@@H]3OC3CCCCC3)[C@H]2S1(=O)=O.CCN1CCN(C(=O)N[C@@H](C(=O)N[C@@H]2C(=O)N3[C@@H]2SC(C)(C)[C@@H]3C(=O)O)c2ccccc2)C(=O)C1=O [listing 1 of 2 here]

IC50 (Beta-lactamase): 30 nM
Structure (SMILES): CC1(C)[C@H](C(=O)O)N2C(=O)[C@]3(C[C@@H]3OC3CCCCC3)[C@H]2S1(=O)=O

MIC (Serratia marcescens): 32 µg/mL
Structure (SMILES): CCN1CCN(C(=O)N[C@@H](C(=O)N[C@@H]2C(=O)N3[C@@H]2SC(C)(C)[C@@H]3C(=O)O)c2ccccc2)C(=O)C1=O.C[C@]1(Cn2ccnn2)[C@H](C(=O)O)N2C(=O)C[C@H]2S1(=O)=O [listing 1 of 2 here]

MIC [1]: 4 µg/mL
Structure (SMILES): CCN1CCN(C(=O)N[C@@H](C(=O)N[C@@H]2C(=O)N3[C@@H]2SC(C)(C)[C@@H]3C(=O)O)c2ccccc2)C(=O)C1=O.C[C@]1(Cn2ccnn2)[C@H](C(=O)O)N2C(=O)C[C@H]2S1(=O)=O [listing 2 of 2 here]

Structure (SMILES): CC(C)(C)[Si](C)(C)O[C@H]1CC12C(=O)N1C(C(=O)O)C(C)(C)S(=O)(=O)[C@@H]12 (single isomer, unassigned)
IC50 (Beta-lactamase): 4100 nM

Structure (SMILES): CC(C)(C)[Si](C)(C)O[C@H]1C[C@]12C(=O)N1[C@@H](C(=O)O)C(C)(C)S(=O)(=O)[C@@H]12.CCN1CCN(C(=O)N[C@@H](C(=O)N[C@@H]2C(=O)N3[C@@H]2SC(C)(C)[C@@H]3C(=O)O)c2ccccc2)C(=O)C1=O [listing 1 of 2 here]
MIC [2]: 8 µg/mL | MIC [1]: 4 µg/mL | MIC [3]: 8 µg/mL

Structure (SMILES): CC(C)(C)[Si](C)(C)O[C@H]1C[C@]12C(=O)N1[C@@H](C(=O)O)C(C)(C)S(=O)(=O)[C@@H]12
IC50 (Beta-lactamase): 20 nM

IC50 (Beta-lactamase): 3200 nM
Structure (SMILES): CC1(C)[C@H](C(=O)O)N2C(=O)[C@@]3(C[C@@H]3OC3CCCCC3)[C@H]2S1(=O)=O

IC50 (Beta-lactamase): > 3200 nM
Structure (SMILES): CC1(C)[C@H](C(=O)O)N2C(=O)[C@@]3(C[C@H]3OC3CCCCC3)[C@H]2S1(=O)=O

Structure (SMILES): CC(C)(C)[Si](C)(C)O[C@@H]1CC12C(=O)N1[C@@H](C(=O)O)C(C)(C)S(=O)(=O)[C@@H]12 (single isomer, unassigned)
IC50 (Beta-lactamase): 400 nM

MIC [1]: 8 µg/mL
Structure (SMILES): CC1(C)[C@H](C(=O)O)N2C(=O)[C@]3(C[C@@H]3OC3CCCCC3)[C@H]2S1(=O)=O.CCN1CCN(C(=O)N[C@@H](C(=O)N[C@@H]2C(=O)N3[C@@H]2SC(C)(C)[C@@H]3C(=O)O)c2ccccc2)C(=O)C1=O [listing 2 of 2 here]

Structure (SMILES): CC(C)(C)[Si](C)(C)O[C@H]1C[C@]12C(=O)N1[C@@H](C(=O)O)C(C)(C)S(=O)(=O)[C@@H]12.CCN1CCN(C(=O)N[C@@H](C(=O)N[C@@H]2C(=O)N3[C@@H]2SC(C)(C)[C@@H]3C(=O)O)c2ccccc2)C(=O)C1=O [listing 2 of 2 here]
MIC (Escherichia coli): < 0.06 µg/mL

— ChEMBL document CHEMBL1145799, “Spirocyclopropyl beta-lactams as mechanism-based inhibitors of serine beta-lactamases. Synthesis by rhodium-catalyzed cyclopropanation of 6-diazopenicillanate sulfone” (J Med Chem, 2003)
